Read-outs that look alike come from different tables or passages of the source.
Columns and labels:
[1] = system: A549 (carcinomic human alveolar basal epithelial cell); assay: CCK-8 antiproliferative assay, A549 cell line; format: cell-based; conditions: Homo sapiens
Experimental: (§2) In vitro cytotoxicity of the γ-lactam derivatives was evaluated by testing their antiproliferative activities against several human cancer cell lines. Cell counting kit (CCK-8) assay was used for the evaluation of growth inhibition.
(§3) All stock solutions of the investigated compounds were prepared by dissolving the powdered materials in appropriate amounts of DMSO. The final concentration of DMSO never exceeded 5% (v/v) in reactions. The stock solution was stored at 5 °C until it was used.
(§4) All were supplemented with 10% of fetal bovine serum (FBS) (Sigma-Aldrich, Madrid, Spain) and with 1% of NORMOCIN solution (Thermo Fisher, Waltham, Massachusetts, MA, USA). […] For cytotoxicity experiments, A549 cells were seeded in 96-well plates at a density of 2.5–3 × 10^3 cells per well and incubated overnight to achieve 70% of confluence at the time of exposition to the cytotoxic compound.
(§5) Both were supplemented with 10% of fetal bovine serum (FBS) (Sigma-Aldrich, Spain) and with 1% of NORMOCIN solution (Thermo Fisher, Waltham, Massachusetts, MA, USA). […] For cytotoxicity experiments, A549 cells were seeded in 96-well plates at a density of 2.5–3 × 10^3 cells per well and incubated overnight to achieve 70% of confluence at the time of exposition to the cytotoxic compound.

[2] = system: SKOV3 (human ovarian carcinoma); assay: CCK-8 antiproliferative assay, SKOV3 cell line; conditions: for IC50: Homo sapiens
Experimental: as §2, §3, §4

[3] = system: MRC5 non-malignant lung fibroblasts; assay: CCK-8 assay on non-malignant cells for selective toxicity; format: cell-based; conditions: Homo sapiens
Experimental: as §2, §3, §4, §5

A549 cells [4] = assay: Flow cytometry apoptosis/necrosis assay (Annexin V FITC / propidium iodide); format: cell-based, human; conditions: A549, 5 µM; for Percentage of late-apoptotic and necrotic cells: FL-1 and FL-3 positive; for Percentage of early-apoptotic cells: FL-1 positive, FL-3 negative
Experimental: In addition, flow cytometry assays were performed using compound 4b in A549 cells at 12, 24, and 48 h post-exposure. Early apoptotic cells were FL-1 positive and FL-3 negative, meaning that they had initialized the apoptotic process but were still alive at the time of the measurement. Percentages of these early-apoptotic cells after 12, 24, and 48 h. were, respectively, 31.17 ± 2.04%, 34.97 ± 3.62% and 40.13 ± 0.81%. On the other hand, late apoptotic and necrotic cells were both FL-1 and FL-3 positive, meaning that they activated the apoptotic machinery and were dead at the time of the measurement. Percentages of late-apoptotic and necrotic cells after 12, 24 and 48 h were, respectively, 33.03 ± 1.43%, 37.60 ± 3.37% and 36.90 ± 0.70% (Figure 4). Control live cells were all FL-1 and FL-3 negative, while around 95% of control necrotic cells were FL-3 positive, FL-1 negative (See ESI). […] In fact, among all the dead cells detected, which were FL-1 positive, almost all were simultaneously positive for the FL-3 channel too, while only a small percentage (2% or lower) of dead cells were exclusively FL-1 positive. Therefore, the majority of dead cells detected in this study were apoptotic cells. In addition, the total percentages of […], which comprised early and late apoptotic cells, were over 60%, and the percentage increased over time.
Flow cytometry assays were conducted using a FACSCalibur system flow cytometer (Becton Dickinson Bioscience, Franklin Lakes, NJ, USA), to identify apoptotic cells and to differentiate them from necrotic cells. A549 cells were exposed to 5 µM of the cytotoxic compound 4b and cell apoptosis and necrosis were evaluated 12, 24, and 48 h after exposure. For that purpose, treated cells were washed with phosphate-buffered saline (PBS) (Sigma-Aldrich, Spain) and detached with trypsin/EDTA (0.25%) (Gibco, New York, NY, USA). Cells were centrifuged at 1100 rpm for 5 min, and then the resulting pellet was resuspended in cell growth media and transferred to specific flow cytometer tubes. Propidium iodide (Sigma-Aldrich, Spain) at 1:300 dilution was used in each sample to detect necrotic cells and eBioscience™ Annexin V Apoptosis Detection Kit FITC (Fisher Scientific, Spain) was used to detect apoptotic cells following the manufacturer’s instructions. The fluorescent signals corresponding to necrotic cells and apoptotic cells were measured at 650 nm (FL3) and 525 nm (FL1), respectively. […] Cells treated with 1 µM of camptothecin (Sigma-Aldrich, Spain) served as a positive control for apoptosis and were used to establish cytometer settings and channel compensations. The experiments were carried out in triplicate for each condition. For each sample, 10,000 events were collected.

[5] = system: RKO (human colon epithelial carcinoma); assay: CCK-8 antiproliferative assay, RKO cell line; format: cell-based
Experimental: as §2, §3, §4

[6] = system: HEK293 (human embryonic kidney); assay: CCK-8 antiproliferative assay, HEK293 cell line; format: cell-based
Excerpt: (§1) In a preliminary study, we tested the cytotoxicity of γ-lactam 4b as lead compound against seven human cancer cell lines: HEK293 (human embryonic kidney), MCF7 (human breast adenocarcinoma), HTB81 (human prostate carcinoma), HeLa (human epithelioid cervix carcinoma), RKO (human colon epithelial carcinoma), SKOV3 (human ovarian carcinoma) and A549 (carcinomic human alveolar basal epithelial cell). The cell proliferation inhibitory activity of γ-lactam 4b is shown as IC50 values (Figure 2).

A549 cells [7] = assay: Visualization of cell growth and morphology; format: cell-based, human
Experimental: Next, cell morphology analysis and flow cytometry assays were performed, to elucidate the mechanism of the antiproliferative activity of γ-lactam substrates. Cell morphology was analyzed at different time points after the addition of compound 4b to visualize the cellular modifications as a result of the treatment.
Qualitative analysis of A549 cell growth and morphology after exposure to 1 µM and 5 µM of the cytotoxic compound 4b was conducted using Cytation^TM 1 Cell Imaging Multi-Mode Reader (Biotek, Winooski, VT, USA). Cell images were acquired immediately after the addition of the compound and at the following time-points after exposure: 0.5, 1, 1.5, 2, 3, 4, 8, 12, 16, 24, and 48 h.

[8] = system: HTB81 (human prostate carcinoma); assay: CCK-8 antiproliferative assay, HTB81 cell line; format: cell-based
Excerpt: as §1

[9] = system: HeLa (human epithelioid cervix carcinoma); assay: CCK-8 antiproliferative assay, HeLa cell line; format: cell-based
Excerpt: as §1

[10] = system: MCF7 (human breast adenocarcinoma); assay: CCK-8 antiproliferative assay, MCF7 cell line; format: cell-based
Excerpt: as §1

[11] = Solubility in solvents compatible with in vitro assays; format: physicochemical; conditions: in words
[12] = A549, A549 cell line, CCK-8, read-out: IC50 A549
[13] = SK-OV-3, read-out: IC50 SKOV3, SKOV3 cell line, CCK-8
[14] = MRC5 non-malignant lung fibroblasts, CCK-8, read-out: IC50 MRC5

| melting point | IC50 [2, 13] [µM] | IC50 [5] [µM] | SMILES | IC50 [1, 12] [µM] | IC50 [3, 14] [µM] | further results |
| --- | --- | --- | --- | --- | --- | --- |
| 173 to 174 °C | > 50 | – | CCOC(=O)[C@]1(C)C[C@@H](Nc2ccc(C)cc2)C(=O)N1c1ccc(C)cc1 (relative stereo) [compound 17, Ethyl (2S*, 4R*)-2-methyl-5-oxo-1-(p-tolyl)-4-(p-tolylamino)-pyrrolidine-2-carboxylate] | > 50 | – | – |
| 178 to 180 °C | – | – | Cc1ccc(NC2=CCN(c3ccc(C)cc3)C2=O)cc1 [4a, 1-(p-Tolyl)-3-(p-tolylamino)-1,5-dihydro-2H-pyrrol-2-one] | – | > 50 | Cytotoxic activity against SKOV3 cell line, in words [2]: did not show activity; IC50 ([2]; SK-OV-3, read-out: IC50 SKOV3): > 50 µM |
| – | 9.62 ± 1.18 | 22.1 ± 2.98 | Cc1ccc(NC2=CC(c3ccccc3)N(c3ccc(C)cc3)C2=O)cc1 (stereo not drawn) [4b] | 2.34 ± 0.28 | > 50 | Percentage of dead cells exclusively FL-1 positive (A549 cells [4]; 12-48 h): ≤ 2%; Total percentage of FL-3 positive cells (early and late apoptotic cells) (A549 cells [4]; 12-48 h, increased over time): over 60%; Percentage of late-apoptotic and necrotic cells (A549 cells [4]; 12 h post-exposure): 33.03 ± 1.43%; Percentage of early-apoptotic cells (A549 cells [4]; 12 h post-exposure): 31.17 ± 2.04%; Percentage of late-apoptotic and necrotic cells (A549 cells [4]; 24 h post-exposure): 37.60 ± 3.37%; Percentage of early-apoptotic cells (A549 cells [4]; 24 h post-exposure): 34.97 ± 3.62%; Percentage of late-apoptotic and necrotic cells (A549 cells [4]; 48 h post-exposure): 36.90 ± 0.70%; Percentage of early-apoptotic cells (A549 cells [4]; 48 h post-exposure): 40.13 ± 0.81%; Growth inhibition activity against HEK293, in words [6]: no grown inhibition activity; IC50 ([6]; Homo sapiens, HEK293, Figure 2): > 50 µM; Cell morphology and growth (A549 cells [7]; 1 µM, 0-48 h): healthy, uniform morphology; Cell morphology and growth (A549 cells [7]; 5 µM, especially after 6 h of exposure): alterations of the cellular morphology; Cell morphology (A549 cells [7]; higher concentrations (10 and 15 µM, 24 h)): high cytotoxicity; IC50 [8]: 27.9 µM; IC50 [9]: 30.2 µM; Growth inhibition activity against MCF7, in words [10]: no grown inhibition activity; IC50 ([10]; Homo sapiens, MCF7, Figure 2): > 50 µM |
| 210 to 213 °C | > 50 | – | Cc1ccc(NC2=CC(c3ccc(C)cc3)N(c3ccc(C)cc3)C2=O)cc1 (stereo not drawn) [4c] | 21 ± 1.64 | > 50 | – |
| – | 22.9 ± 0.63 | 23.8 ± 2.53 | Cc1ccc(NC2=CC(c3ccc([N+](=O)[O-])cc3)N(c3ccc(C)cc3)C2=O)cc1 (stereo not drawn) [4g] | 17.1 ± 1.58 | 26.6 ± 2.89 | – |
| – | > 50 | > 50 | Cc1ccc(NC2=CC(c3ccc(C(F)(F)F)cc3)N(c3ccc(C)cc3)C2=O)cc1 (stereo not drawn) [4i] | > 50 | – | – |
| 178 to 179 °C | > 50 | – | Cc1ccc(NC2=CC(CC(C)C)N(c3ccc(C)cc3)C2=O)cc1 (stereo not drawn) [4p] | 20.1 ± 2 | 24.1 ± 1.64 | – |
| – | > 50 | > 50 | Cc1ccc(NC2=CC(c3c(F)c(F)c(F)c(F)c3F)N(c3ccc(C)cc3)C2=O)cc1 (stereo not drawn) [4t] | 33.5 ± 1.68 | > 50 | – |
| – | > 50 | > 50 | Cc1ccc(NC2=CC(C(F)(F)F)N(c3ccc(C)cc3)C2=O)cc1 (stereo not drawn) [4u] | > 50 | – | – |
| – | 10.8 ± 0.88 | 28.1 ± 1.47 | Cc1ccc(NC2=CC(CP(=O)(c3ccccc3)c3ccccc3)N(c3ccc(C)cc3)C2=O)cc1 (stereo not drawn) [4w] | 5.67 ± 0.9 | 30.1 ± 0.49 | – |
| 179 to 181 °C | – | – | COC(=O)C1=C(Nc2ccc(C)cc2)C(=O)N(c2ccc(C)cc2)C1c1ccccc1 (stereo not drawn) [5c] | – | > 50 | – |
| – | – | – | Cc1ccc(NC2=C(P(=O)(c3ccccc3)c3ccccc3)CN(c3ccc(C)cc3)C2=O)cc1 [5e] | – | – | Solubility in the solvents compatible with the tests for in vitro assays [11]: low solubility |
| – | > 50 | > 50 | COc1ccc(NC2=CC(c3ccc([N+](=O)[O-])cc3)N(c3ccc(OC)cc3)C2=O)cc1 (stereo not drawn) [6b] | 31.5 ± 1.37 | > 50 | – |
| – | > 50 | > 50 | O=C1C(Nc2ccc(Br)cc2)=CC(c2ccc(C(F)(F)F)cc2)N1c1ccc(Br)cc1 (stereo not drawn) [8b] | > 50 | – | – |
| 160 to 162 °C | > 50 | – | O=C1C(Nc2cccc(C(F)(F)F)c2)=CCN1c1cccc(C(F)(F)F)c1 [11a] | 22.9 ± 1.13 | > 50 | – |
| – | > 50 | – | O=C1C(Nc2ccc(Cl)cc2)=CC(c2ccc([N+](=O)[O-])cc2)N1c1ccc(Cl)cc1 (stereo not drawn) [compound 7] | 17.2 ± 2.1 | > 50 | – |
| – | 16.1 ± 0.81 | – | O=C1C(Nc2cccc(Cl)c2)=CC(c2ccc([N+](=O)[O-])cc2)N1c1cccc(Cl)c1 (stereo not drawn) [compound 9] | 8.37 ± 1.27 | 23.8 ± 1.75 | – |
| – | 5.55 ± 0.62 | – | O=C1C(Nc2ccccc2F)=CC(c2ccc([N+](=O)[O-])cc2)N1c1ccccc1F (stereo not drawn) [compound 10] | 4.36 ± 0.51 | > 50 | – |
| 188 to 190 °C (dec.) | > 50 | > 50 | CCOC(=O)C1(C)C=C(Nc2ccc(C)cc2)C(=O)N1c1ccc(C)cc1 (stereo not drawn) [compound 16, Ethyl 2-methyl-5-oxo-1-(p-tolyl)-4-(p-tolylamino)-2,5-dihydro-1H-pyrrole-2-carboxylate] | 14 ± 1.05 | > 50 | – |
| 207 °C (dec.) | 16.7 ± 1.1 | – | Cc1ccc(/N=C2/C=C(c3ccccc3)N(c3ccc(C)cc3)C2=O)cc1 [compound 21, (Z)-5-phenyl-1-(p-tolyl)-3-(p-tolylimino)-1,3-dihydro-2H-pyrrol-2-one] | 0.6 ± 0.08 | 6.12 ± 0.76 | – |

| SMILES | melting point | IC50 [2, 13] [µM] | IC50 [5] [µM] | IC50 [1, 12] [µM] | IC50 [3, 14] [µM] | further results |
| --- | --- | --- | --- | --- | --- | --- |
| CCOP(=O)(CC1C=C(Nc2ccc(C)cc2)C(=O)N1c1ccc(C)cc1)OCC (stereo not drawn) [4v] | – | – | > 50 | – | – | IC50 ([3]; MRC5, read-out: IC50 MRC5): > 50 µM; IC50 ([1]; A549, read-out: IC50 A549): 11.3 ± 1.8 µM; IC50 ([2]; SK-OV-3, read-out: IC50 SKOV3): > 50 µM |
| CCOP(=O)(OCC)C1=C(Nc2ccc(C)cc2)C(=O)N(c2ccc(C)cc2)C1 [5d] | – | – | > 50 | – | – | IC50 ([3]; MRC5, read-out: IC50 MRC5): > 50 µM; IC50 ([1]; A549, read-out: IC50 A549): > 50 µM; IC50 ([2]; SK-OV-3, read-out: IC50 SKOV3): > 50 µM |
| CCOP(=O)(C[C@H]1C[C@@H](Nc2ccc(C)cc2)C(=O)N1c1ccc(C)cc1)OCC [18b] | – | – | > 50 | – | – | IC50 ([3]; MRC5, read-out: IC50 MRC5): > 50 µM; IC50 ([1]; A549, read-out: IC50 A549): 4.25 ± 0.65 µM; IC50 ([2]; SK-OV-3, read-out: IC50 SKOV3): > 50 µM |
| CCOP(=O)(CC1=C(C)C(C)(Nc2ccc(C)cc2)C(=O)N1c1ccc(C)cc1)OCC (stereo not drawn) [compound 19, Diethyl ((3,4-dimethyl-5-oxo-1-(p-tolyl)-4-(p-tolylamino)-4,5-dihydro-1H-pyrrol-2-yl)methyl)phosphonate] | – | – | > 50 | – | – | IC50 ([3]; MRC5, read-out: IC50 MRC5): > 50 µM; IC50 ([1]; A549, read-out: IC50 A549): 3.65 ± 0.25 µM; IC50 ([2]; SK-OV-3, read-out: IC50 SKOV3): > 50 µM |

Source: publication PMC8400033, “A Multicomponent Protocol for the Synthesis of Highly Functionalized γ-Lactam Derivatives and Their Applications as Antiproliferative Agents” (Pharmaceuticals, 2021)
